Read-outs that look alike come from different tables or passages of the source.
Columns and labels:
[1] = target: BRG-1 (Homo sapiens, UniProt P51532); assay: ATPase catalytic activity assay of BRG-1 (ADP-Glo); type: biochemical; settings: ATPase catalytic activity, ADP-Glo; for Emax: read-out: BRG1 Max % Inhibition
Method in brief: (§1)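 In vitro biochemical ATPase assay; product ADP detected after removing leftover ATP and reconverting ADP to ATP for a luciferase signal.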

[2] = target: BRM (Homo sapiens, UniProt P51531); assay: ATPase catalytic activity assay of BRM (ADP-Glo); type: biochemical
Method in brief: as §1

Chain of BRG-1 (P51532 whole entry): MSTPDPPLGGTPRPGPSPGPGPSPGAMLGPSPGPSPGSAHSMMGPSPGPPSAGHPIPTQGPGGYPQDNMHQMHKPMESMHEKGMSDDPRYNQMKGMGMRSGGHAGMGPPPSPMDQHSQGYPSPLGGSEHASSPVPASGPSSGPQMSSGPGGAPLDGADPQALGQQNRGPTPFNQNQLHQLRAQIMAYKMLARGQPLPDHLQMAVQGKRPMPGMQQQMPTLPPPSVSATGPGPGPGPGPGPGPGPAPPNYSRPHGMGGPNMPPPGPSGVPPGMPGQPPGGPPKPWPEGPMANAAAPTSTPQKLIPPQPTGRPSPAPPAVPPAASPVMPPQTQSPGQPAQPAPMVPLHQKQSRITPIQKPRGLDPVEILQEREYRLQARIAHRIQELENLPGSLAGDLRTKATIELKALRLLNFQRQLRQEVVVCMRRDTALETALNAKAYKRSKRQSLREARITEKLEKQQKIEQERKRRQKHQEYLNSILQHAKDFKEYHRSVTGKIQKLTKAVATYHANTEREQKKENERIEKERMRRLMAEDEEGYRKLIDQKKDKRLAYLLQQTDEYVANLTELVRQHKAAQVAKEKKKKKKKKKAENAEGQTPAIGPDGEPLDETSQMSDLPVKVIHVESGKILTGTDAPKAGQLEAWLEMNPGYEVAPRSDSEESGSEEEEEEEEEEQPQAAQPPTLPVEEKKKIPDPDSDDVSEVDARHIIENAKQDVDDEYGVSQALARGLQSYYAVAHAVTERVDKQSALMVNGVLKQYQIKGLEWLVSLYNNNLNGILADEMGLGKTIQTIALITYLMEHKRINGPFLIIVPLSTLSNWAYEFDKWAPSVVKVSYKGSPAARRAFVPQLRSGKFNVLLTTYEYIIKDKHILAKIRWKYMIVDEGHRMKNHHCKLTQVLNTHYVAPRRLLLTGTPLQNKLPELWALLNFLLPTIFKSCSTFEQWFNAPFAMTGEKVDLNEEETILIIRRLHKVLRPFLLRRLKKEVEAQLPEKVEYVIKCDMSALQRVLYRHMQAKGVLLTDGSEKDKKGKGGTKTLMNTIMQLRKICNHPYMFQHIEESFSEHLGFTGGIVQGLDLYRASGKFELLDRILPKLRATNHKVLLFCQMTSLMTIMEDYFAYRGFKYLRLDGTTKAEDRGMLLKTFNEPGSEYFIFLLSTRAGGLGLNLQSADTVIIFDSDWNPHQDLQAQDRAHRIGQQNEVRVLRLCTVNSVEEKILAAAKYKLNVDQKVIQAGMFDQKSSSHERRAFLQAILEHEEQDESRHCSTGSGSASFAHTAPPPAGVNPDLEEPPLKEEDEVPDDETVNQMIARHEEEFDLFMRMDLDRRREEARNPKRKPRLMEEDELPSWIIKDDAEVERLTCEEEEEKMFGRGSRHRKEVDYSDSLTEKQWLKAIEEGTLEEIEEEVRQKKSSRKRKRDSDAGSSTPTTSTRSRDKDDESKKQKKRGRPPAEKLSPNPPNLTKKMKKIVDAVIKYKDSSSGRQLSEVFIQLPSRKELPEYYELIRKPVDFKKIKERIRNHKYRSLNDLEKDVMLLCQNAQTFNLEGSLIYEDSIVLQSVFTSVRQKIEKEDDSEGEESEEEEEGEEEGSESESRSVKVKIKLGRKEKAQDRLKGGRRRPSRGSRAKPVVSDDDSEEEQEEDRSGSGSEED
Chain of BRM (P51531 whole entry): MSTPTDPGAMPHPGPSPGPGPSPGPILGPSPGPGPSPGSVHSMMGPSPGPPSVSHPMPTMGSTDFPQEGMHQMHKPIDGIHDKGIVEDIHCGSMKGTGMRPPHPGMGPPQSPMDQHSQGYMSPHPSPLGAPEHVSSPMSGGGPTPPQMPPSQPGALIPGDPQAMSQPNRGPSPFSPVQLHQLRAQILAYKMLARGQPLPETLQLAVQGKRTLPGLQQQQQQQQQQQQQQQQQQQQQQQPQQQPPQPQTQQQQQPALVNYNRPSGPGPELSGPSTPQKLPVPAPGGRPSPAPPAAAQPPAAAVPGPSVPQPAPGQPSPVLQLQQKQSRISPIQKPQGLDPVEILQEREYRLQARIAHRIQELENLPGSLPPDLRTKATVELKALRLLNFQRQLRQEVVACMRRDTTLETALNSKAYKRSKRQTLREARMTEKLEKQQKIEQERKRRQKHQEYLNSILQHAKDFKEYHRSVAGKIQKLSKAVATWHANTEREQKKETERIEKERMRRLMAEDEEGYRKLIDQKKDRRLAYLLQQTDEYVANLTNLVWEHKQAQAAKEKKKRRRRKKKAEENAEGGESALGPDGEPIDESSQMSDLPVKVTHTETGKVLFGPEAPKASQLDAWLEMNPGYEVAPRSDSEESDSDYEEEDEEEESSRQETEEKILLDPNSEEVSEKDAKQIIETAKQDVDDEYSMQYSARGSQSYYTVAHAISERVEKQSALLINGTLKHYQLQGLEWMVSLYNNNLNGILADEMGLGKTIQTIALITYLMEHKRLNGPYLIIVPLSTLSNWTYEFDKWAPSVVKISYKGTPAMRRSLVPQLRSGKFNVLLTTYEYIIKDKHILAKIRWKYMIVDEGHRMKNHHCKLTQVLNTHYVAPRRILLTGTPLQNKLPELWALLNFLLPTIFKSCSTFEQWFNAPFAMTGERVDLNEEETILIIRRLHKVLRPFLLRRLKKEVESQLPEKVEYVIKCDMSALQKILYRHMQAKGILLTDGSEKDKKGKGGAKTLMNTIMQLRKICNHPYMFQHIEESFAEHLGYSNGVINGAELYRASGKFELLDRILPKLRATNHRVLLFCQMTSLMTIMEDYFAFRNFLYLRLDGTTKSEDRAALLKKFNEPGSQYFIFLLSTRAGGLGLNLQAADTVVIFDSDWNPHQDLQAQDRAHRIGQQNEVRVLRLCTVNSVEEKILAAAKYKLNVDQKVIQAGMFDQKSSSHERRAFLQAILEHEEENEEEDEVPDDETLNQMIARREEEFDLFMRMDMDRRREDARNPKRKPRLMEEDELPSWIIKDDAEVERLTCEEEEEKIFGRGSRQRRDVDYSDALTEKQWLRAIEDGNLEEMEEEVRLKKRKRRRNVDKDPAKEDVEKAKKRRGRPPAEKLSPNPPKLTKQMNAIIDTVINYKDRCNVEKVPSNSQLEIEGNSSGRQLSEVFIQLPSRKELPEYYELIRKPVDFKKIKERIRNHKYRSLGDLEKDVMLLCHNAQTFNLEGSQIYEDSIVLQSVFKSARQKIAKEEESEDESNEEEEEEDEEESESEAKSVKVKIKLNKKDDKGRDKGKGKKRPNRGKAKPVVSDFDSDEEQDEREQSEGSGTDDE

C[C@@H]1CN(c2cccc(-c3csc(NC(=O)CNC(=O)c4cccc(C5(C(F)F)CCOC5)c4)n3)c2)C[C@H](C)O1 (stereo partly drawn) [Compound 345, 3-(3-(difluoromethyl)tetrahydrofuran-3-yl)-N-(2-((4-(3-((cis)-2,6-dimethylmorpholino)phenyl)thiazol-2-yl)amino)-2-oxoethyl)benzamide]
IC50 ([1]; read-out: BRG1 IC50 (μM)*): 1 to 5 µM | Emax [1]: > 95% | BRM Max % Inhibition [2]: >95% | IC50 ([2]; read-out: BRM IC50 (μM)*): < 0.1 µM

CC(C)S(=O)(=O)c1cccc(C(=O)NCC(=O)Nc2nc(-c3cccc(-c4ccnc(C(F)(F)F)c4)c3)cs2)c1 [Compound 19, 3-(isopropylsulfonyl)-N-(2-oxo-2-((4-(3-(2-(trifluoromethyl)pyridin-4-yl)phenyl)thiazol-2-yl)amino)ethyl)benzamide]
IC50 ([1]; read-out: BRG1 IC50 (μM)*): 1 to 5 µM | BRM Max % Inhibition [2]: >90% | IC50 ([2]; read-out: BRM IC50 (μM)*): 0.1 to 1 µM

C[C@@H]1CN(c2cccc(-c3csc(NC(=O)CNC(=O)c4ccc5c(c4)C(F)(C(F)F)COC5)n3)c2)C[C@H](C)O1 (stereo in doubt) [Compound 308, (S)-4-(difluoromethyl)-N-(2-((4-(3-((cis)-2,6-dimethylmorpholino)phenyl)thiazol-2-yl)amino)-2-oxoethyl)-4-fluoroisochromane-6-carboxamide]
IC50 ([1]; read-out: BRG1 IC50 (μM)*): < 0.1 µM | Emax [1]: > 95% | BRM Max % Inhibition [2]: >95% | IC50 ([2]; read-out: BRM IC50 (μM)*): < 0.1 µM

CC(C)S(=O)(=O)c1cccc(C(=O)NCC(=O)Nc2nc(-c3cccc(-c4ccnc(N)c4)c3)cs2)c1 [Compound 22, N-(2-((4-(3-(2-aminopyridin-4-yl)phenyl)thiazol-2-yl)amino)-2-oxoethyl)-3-(isopropylsulfonyl)benzamide]
IC50 ([1]; BRG1 IC50 (μM)*): 0.1 to 1 µM | BRM Max % Inhibition [2]: >95% | IC50 ([2]; BRM IC50 (μM)*): < 0.1 µM

C[C@@H]1CN(c2cccc(-c3csc(NC(=O)CNC(=O)c4ccc5c(c4)[C@@]4(COC5)CC4(F)F)n3)n2)C[C@H](C)O1 [Compound 410, (R)-N-(2-((4-(6-((cis)-2,6-dimethylmorpholino)pyridin-2-yl)thiazol-2-yl)amino)-2-oxoethyl)-2,2-difluorospiro[cyclopropane-1,4′-isochromane]-6′-carboxamide]
IC50 ([1]; read-out: BRG1 IC50 (μM)*): 1 to 5 µM | Emax [1]: > 95% | BRM Max % Inhibition [2]: >95% | IC50 ([2]; read-out: BRM IC50 (μM)*): < 0.1 µM

C[C@@H]1CN(c2cccc(-c3csc(NC(=O)CNC(=O)c4ccc5c(c4)[C@@](F)(C#N)COC5)n3)n2)C[C@H](C)O1 (single isomer, unassigned) [Compound 299]
IC50 ([1]; read-out: BRG1 IC50 (μM)*): 0.1 to 1 µM | Emax [1]: > 95% | BRM Max % Inhibition [2]: >95% | IC50 ([2]; read-out: BRM IC50 (μM)*): < 0.1 µM

CC(C)S(=O)(=O)c1cccc(C(=O)NCC(=O)Nc2nc(-c3cccc(-c4ccnc(CO)c4)c3)cs2)c1 [Compound 26, N-(2-((4-(3-(2-(hydroxymethyl)pyridin-4-yl)phenyl)thiazol-2-yl)amino)-2-oxoethyl)-3-(isopropylsulfonyl)benzamide]
IC50 ([1]; read-out: BRG1 IC50 (μM)*): 0.1 to 1 µM | BRM Max % Inhibition [2]: >90% | IC50 ([2]; read-out: BRM IC50 (μM)*): < 0.1 µM

C[C@@H]1CN(c2cccc(-c3csc(NC(=O)CNC(=O)c4cnc5c(c4)[C@](C)(C#N)CC5)n3)c2)C[C@H](C)O1 [Compound 170, (R)-5-cyano-N-(2-((4-(3-((cis)-2,6-dimethylmorpholino)phenyl)thiazol-2-yl)amino)-2-oxoethyl)-5-methyl-6,7-dihydro-5H-cyclopenta[b]pyridine-3-carboxamide]
IC50 ([1]; read-out: BRG1 IC50 (μM)*): < 0.1 µM | Emax [1]: > 95% | BRM Max % Inhibition [2]: >95% | IC50 ([2]; read-out: BRM IC50 (μM)*): < 0.1 µM

CC(C)(C#N)c1cccc(C(=O)NCC(=O)Nc2nc(-c3cccc(-c4ccncc4)c3)cs2)c1 [Compound 87, 3-(2-cyanopropan-2-yl)-N-(2-oxo-2-((4-(3-(pyridin-4-yl)phenyl)thiazol-2-yl)amino)ethyl)benzamide]
IC50 ([1]; read-out: BRG1 IC50 (μM)*): > 5 µM | Emax [1]: < 30% | BRM Max % Inhibition [2]: >80% | IC50 ([2]; read-out: BRM IC50 (μM)*): 0.1 to 1 µM

C[C@@H]1CN(c2cccc(-c3csc(NC(=O)CNC(=O)c4cccc([C@@H]5COC[C@H]5O)c4)n3)n2)C[C@H](C)O1 [Compound 160, N-(2-((4-(6-((cis)-2,6-dimethylmorpholino)pyridin-2-yl)thiazol-2-yl)amino)-2-oxoethyl)-3-((3R,4S)-4-hydroxytetrahydrofuran-3-yl)benzamide]
IC50 ([1]; read-out: BRG1 IC50 (μM)*): > 5 µM | Emax [1]: < 30% | BRM Max % Inhibition [2]: >80% | IC50 ([2]; read-out: BRM IC50 (μM)*): 0.1 to 1 µM

C[C@@H]1CN(c2cccc(-c3csc(NC(=O)CNC(=O)c4ccc5c(c4)[C@@](C)(CO)CC5)n3)c2)C[C@H](C)O1 [Compound 219, (S)-N-(2-((4-(3-((cis)-2,6-dimethylmorpholino)phenyl)thiazol-2-yl)amino)-2-oxoethyl)-3-(hydroxymethyl)-3-methyl-2,3-dihydro-1H-indene-5-carboxamide]
IC50 ([1]; read-out: BRG1 IC50 (μM)*): 0.1 to 1 µM | Emax [1]: > 90% | BRM Max % Inhibition [2]: >95% | IC50 ([2]; read-out: BRM IC50 (μM)*): < 0.1 µM

C[C@@H]1CN(c2cccc(-c3csc(NC(=O)CNC(=O)c4ccc5c(c4)[C@](F)(C#N)COC5)n3)n2)C[C@H](C)O1 (single isomer, unassigned) [Compound 298]
IC50 ([1]; read-out: BRG1 IC50 (μM)*): 1 to 5 µM | Emax [1]: > 95% | BRM Max % Inhibition [2]: >95% | IC50 ([2]; read-out: BRM IC50 (μM)*): 0.1 to 1 µM

Cc1cc(-c2cccc(-c3csc(NC(=O)CNC(=O)c4ccc5c(c4)[C@@](C)(CO)CC5)n3)n2)ncn1 [Compound 204, (3S)-3-(hydroxymethyl)-3-methyl-N-[2-[[4-[6-(6-methylpyrimidin-4-yl)-2-pyridyl]thiazol-2-yl]amino]-2-oxo-ethyl]indane-5-carboxamide]
IC50 ([1]; read-out: BRG1 IC50 (μM)*): 0.1 to 1 µM | Emax [1]: > 90% | BRM Max % Inhibition [2]: >95% | IC50 ([2]; read-out: BRM IC50 (μM)*): < 0.1 µM

CC(C)(CN)c1cccc(C(=O)NCC(=O)Nc2nc(-c3cccc(-c4ccnc(C(F)(F)F)c4)c3)cs2)c1 [Compound 58, 3-(1-amino-2-methylpropan-2-yl)-N-(2-oxo-2-((4-(3-(2-(trifluoromethyl)pyridin-4-yl)phenyl)thiazol-2-yl)amino)ethyl)benzamide]
IC50 ([1]; read-out: BRG1 IC50 (μM)*): 1 to 5 µM | Emax [1]: > 60% | BRM Max % Inhibition [2]: >80% | IC50 ([2]; read-out: BRM IC50 (μM)*): 0.1 to 1 µM

Cn1cnc2ccc(-c3csc(NC(=O)CNC(=O)c4ccc5c(c4)[C@@](C)(CO)CC5)n3)cc21 [Compound 257, (S)-3-(hydroxymethyl)-3-methyl-N-(2-((4-(1-methyl-1H-benzo[d]imidazol-6-yl)thiazol-2-yl)amino)-2-oxoethyl)-2,3-dihydro-1H-indene-5-carboxamide]
IC50 ([1]; read-out: BRG1 IC50 (μM)*): > 5 µM | Emax [1]: > 30% | BRM Max % Inhibition [2]: >70% | IC50 ([2]; read-out: BRM IC50 (μM)*): 1 to 5 µM

CCC(C)(O)c1cccc(C(=O)NCC(=O)Nc2nc(-c3cccc(-c4ccncc4)c3)cs2)c1 (single isomer, unassigned) [Compound 81]
BRG1 Max % Inhibition [1]: >70% | IC50 ([1]; read-out: BRG1 IC50 (μM)*): 0.1 to 1 µM | BRM Max % Inhibition [2]: >90% | IC50 ([2]; read-out: BRM IC50 (μM)*): 0.1 to 1 µM

C[C@@H]1CN(c2cccc(-c3csc(NC(=O)CNC(=O)c4ccc5c(c4)[C@@H]([C@H](C)O)CC5)n3)n2)C[C@H](C)O1 [Compound 140, (3S)-N-[2-[[4-[6-[(cis)-2,6-dimethylmorpholin-4-yl]-2-pyridyl]thiazol-2-yl]amino]-2-oxo-ethyl]-3-[(1S)-1-hydroxyethyl]indane-5-carboxamide]
IC50 ([1]; read-out: BRG1 IC50 (μM)*): > 5 µM | Emax [1]: > 50% | BRM Max % Inhibition [2]: >95% | IC50 ([2]; read-out: BRM IC50 (μM)*): 0.1 to 1 µM

C[C@@H]1CN(c2cccc(-c3csc(NC(=O)CNC(=O)c4ccc5c(c4)[C@@](C)(C#N)CCO5)n3)c2)C[C@H](C)O1 [Compound 255, (4S)-4-cyano-N-[2-[[4-[3-[(cis)-2,6-dimethylmorpholin-4-yl]phenyl]thiazol-2-yl]amino]-2-oxo-ethyl]-4-methyl-chromane-6-carboxamide]
IC50 ([1]; read-out: BRG1 IC50 (μM)*): > 5 µM | Emax [1]: > 40% | BRM Max % Inhibition [2]: >70% | IC50 ([2]; read-out: BRM IC50 (μM)*): 1 to 5 µM

CC1CC(c2cccc(-c3csc(NC(=O)CNC(=O)c4ccc5c(c4)[C@](C)(C#N)COC5)n3)c2)O1 (stereo partly drawn) [Compound 340, (R)-4-cyano-4-methyl-N-(2-((4-(3-(4-methyloxetan-2-yl)phenyl)thiazol-2-yl)amino)-2-oxoethyl)isochromane-6-carboxamide]
IC50 ([1]; read-out: BRG1 IC50 (μM)*): 0.1 to 1 µM | Emax [1]: > 95% | BRM Max % Inhibition [2]: >95% | IC50 ([2]; read-out: BRM IC50 (μM)*): < 0.1 µM

Cn1ncc2ccc(-c3csc(NC(=O)CNC(=O)c4ccc5c(c4)[C@@](C)(CO)CC5)n3)cc21 [Compound 261, (S)-3-(hydroxymethyl)-3-methyl-N-(2-((4-(1-methyl-1H-indazol-6-yl)thiazol-2-yl)amino)-2-oxoethyl)-2,3-dihydro-1H-indene-5-carboxamide]
IC50 ([1]; read-out: BRG1 IC50 (μM)*): > 5 µM | Emax [1]: > 30% | BRM Max % Inhibition [2]: >60% | IC50 ([2]; read-out: BRM IC50 (μM)*): 1 to 5 µM

CN(C)Cc1cc(-c2cccc(-c3csc(NC(=O)CNC(=O)c4cccc(C(C)(C)CN)c4)n3)c2)ccn1 [Compound 61, 3-(1-amino-2-methylpropan-2-yl)-N-(2-((4-(3-(2-((dimethylamino)methyl)pyridin-4-yl)phenyl)thiazol-2-yl)amino)-2-oxoethyl)benzamide]
IC50 ([1]; read-out: BRG1 IC50 (μM)*): 1 to 5 µM | Emax [1]: > 60% | BRM Max % Inhibition [2]: >90% | IC50 ([2]; read-out: BRM IC50 (μM)*): 0.1 to 1 µM

C[C@@H]1CN(c2cccc(-c3csc(NC(=O)CNC(=O)c4cccc([C@]5(F)C[C@H](O)C5)c4)n3)c2)C[C@H](C)O1 [Compound 150, N-(2-((4-(3-((cis)-2,6-dimethylmorpholino)phenyl)thiazol-2-yl)amino)-2-oxoethyl)-3-((1r,3r)-1-fluoro-3-hydroxycyclobutyl)benzamide]
IC50 ([1]; read-out: BRG1 IC50 (μM)*): 0.1 to 1 µM | Emax [1]: > 90% | BRM Max % Inhibition [2]: >95% | IC50 ([2]; read-out: BRM IC50 (μM)*): < 0.1 µM

COC(=O)N1CCC[C@@H](c2csc(NC(=O)CNC(=O)c3ccc4c(c3)[C@](C)(C#N)COC4)n2)C1 [Compound 355, methyl (R)-3-(2-(2-((R)-4-cyano-4-methylisochromane-6-carboxamido)acetamido)thiazol-4-yl)piperidine-1-carboxylate]
IC50 ([1]; read-out: BRG1 IC50 (μM)*): 0.1 to 1 µM | Emax [1]: > 95% | BRM Max % Inhibition [2]: >95% | IC50 ([2]; read-out: BRM IC50 (μM)*): < 0.1 µM

— patent US12685735B2 (Foghorn Therapeutics Inc., priority 2020, dated 2026)
